Data published in PMC6271077, “Synthesis, Anticancer and Antibacterial Activity of Salinomycin N-Benzyl Amides” (Molecules, 2014).
Read-outs that look alike come from different tables or passages of the source. Blank lines part the entries; values can stand above or below the compound they belong to.

Experiments:
[1] = test system: HL-60; assay: Antiproliferative MTT assay, HL-60; type: cell-based, human; conditions: for IC50: 72 h, MTT, mean ± SD, NA: not active in concentrations used (up to 100 µg/mL), read-out: IC50 HL-60; for SI HL-60: SI = IC50 BALB/3T3 / IC50 HL-60
Source text: (§1) Four human cancer cell lines and one normal cell line were used to evaluate anticancer activity of SAL and its N-benzyl amides: human acute promyelocytic leukemia (HL-60) and its vincristine resistant subline (HL-60/vinc), human colon adenocarcinoma cell lines sensitive (LoVo) and resistant to doxorubicin (LoVo/dx) as well as also normal murine embryonic fibroblast cell line (BALB/3T3). The BALB/3T3 cell line was purchased from the American Type Culture Collection (ATCC Rockville, MD, USA), HL-60 cell line from European Type Culture Collection by courtesy of Professor Spik and Dr Mazurier (Laboratory of Biological Chemistry USTL, Lille, France) and HL-60/vinc, LoVo and LoVo/dx by courtesy of Prof. E. Borowski (Technical University of Gdańsk, Gdańsk, Poland). All the cell lines are maintained in the Institute of Immunology and Experimental Therapy (IIET), Wrocław, Poland.
(§2) Human leukemia cells were cultured in ISCOVE medium (IIET, Wroclaw, Polond) containing 10% fetal bovine serum and 2 mM L-glutamine (Sigma Aldrich) and 1 µg/100 mL […] for HL-60/vinc (Sigma Aldrich). Human colon adenocarcinoma cell lines were cultured in mixture of OptiMEM and RPMI 1640 (1:1) medium (IIET) supplemented with 5% fetal bovine serum (Thermo Fisher Scientific, Waltham, MA, USA), 2 mM L-glutamine, 1 mM sodium pyruvate (Sigma Aldrich) and 10 µg/100 mL doxorubicin for LoVo/dx (Sigma Aldrich). Murine embryonic fibroblast cells were cultured in Dulbecco medium (Gibco, Darmstadt, Germany) supplemented with 10% fetal bovine serum (Thermo Fisher Scientific) and 2 mM L-glutamine (Sigma Aldrich). All culture media contained antibiotics: 100 U/mL penicillin (Sigma Aldrich) and 100 µg/mL streptomycin (Polfa-Tarchomin, City, Poland). All cell lines were cultured during entire experiment in humid atmosphere at 37 °C and 5% CO2.
(§3) Twenty four hours before adding the tested compounds all cell lines were seeded in 96-well plates (Sarstedt, Nümbrecht, Germany) in appropriate media with 10^4 cells per well. All cell lines were exposed to each tested agent at four different concentrations from the range 100 to 0.1 µg/mL for 72 h. The cells were also exposed to the reference drugs: cisplatin (Accord, London, UK) and doxorubicin hydrochloride (Fluka, St. Louis, MO, USA). Additionally, all cell lines were exposed to DMSO (the solvent used for tested compounds, Sigma Aldrich) at the concentrations corresponding to those in the tested agent dilutions. For adherent cells sulphorodamine B assay was performed and MTT assay for leukemia cells.
(§4) Proliferation inhibition of leukemia cells by tested compounds was measured by means of MTT assay. Thus, 20 µL of 3-(4,5-dimethylthiazol-2-yl)-2,5-diphenyl tetrazolium bromide solution (Sigma Aldrich) were added to each well and plates were left in cell incubator for 4 h to allow the cells to metabolize yellow MTT to blue formazan. Then, the lysing mixture consisting of 225 mL dimethylformamide, 67.5 g sodium dodecyl sulfate (both from Sigma Aldrich) and 275 mL of distilled water was added in 80 µL volume per well. Plates were incubated for 24 h for the formazan crystals to be released from cells, dissolved and then absorbance of each well was read at Synergy H4 photometer (BioTek Instruments) at 570 nm wavelength.
(§5) Results are presented as mean IC50 (concentration of the tested compound that inhibits cell proliferation by 50%) ± standard deviation. IC50 values were calculated in Cheburator 1.0.2, Dmitry Nevozhay software for each experiment. Compounds at each concentration were tested in triplicates in single experiment and each experiment was repeated at least three times independently. The IR was defined as the ratio of IC50 for a given compound calculated for resistant cell line to that measured for its parental drug sensitive cell line (Table 4).

[2] = test system: HL-60/vinc; assay: Antiproliferative MTT assay, HL-60/vinc; type: cell-based, human; conditions: for IR HL-60/vinc: IR = IC50 HL-60/vinc / IC50 HL-60; for SI HL-60/vinc: SI = IC50 BALB/3T3 / IC50 HL-60/vinc; for IC50: vincristine-resistant subline, 72 h, MTT, mean ± SD, NA: not active in concentrations used (up to 100 µg/mL), read-out: IC50 HL-60/vinc
Source text: as §1, §2, §3, §4, §5

[3] = test system: LoVo; assay: Antiproliferative SRB assay, LoVo; type: cell-based, human; conditions: for IC50: 72 h, SRB, mean ± SD, read-out: IC50 LoVo; for SI LoVo: SI = IC50 BALB/3T3 / IC50 LoVo
Source text: as §1, §2, §3
(§6) After 72 h of incubation with tested compounds the cells were fixed in situ by gently adding of 50 µL per well of cold 50% trichloroacetic acid TCA (Avantor Performance Materials, City, Poland) and were incubated at 4 °C for 1 h. Then the wells were washed four times with water and air-dried. Next, 50 µL of 0.2% solution of sulphorodamine B (Sigma Aldrich) in 1% acetic acid (Avantor Performance Materials) were added to each well and plates were incubated at room temperature for 0.5 h. After incubation time, unbound dye was removed by washing plates four times with 1% acetic acid, whereas the stain bound to cells was solubilized with 150 µL of 10 mM Tris base (Sigma Aldrich). Absorbance of each solution was read at Synergy H4 photometer (BioTek Instruments, Winooski, VT, USA) at 540 nm wavelength.
as §5

[4] = test system: LoVo/dx; assay: Antiproliferative SRB assay, LoVo/dx; type: cell-based, human; conditions: for IR LoVo/DX: IR = IC50 LoVo/dx / IC50 LoVo; for SI LoVo/DX: SI = IC50 BALB/3T3 / IC50 LoVo/dx; for IC50: doxorubicin resistant subline, 72 h, SRB, mean ± SD, read-out: IC50 LoVo/dx
Source text: as §1, §2, §3, §6, §5

[5] = test system: BALB/3T3; assay: Antiproliferative SRB assay, normal fibroblasts BALB/3T3; type: cell-based; conditions: 72 h, mean ± SD, read-out: IC50 BALB/3T3 (normal cells)
Source text: as §1, with “Poland. […]” for “Poland.”
After 72 h of incubation with tested compounds the cells were fixed in situ by gently adding of 50 µL per well of cold 50% trichloroacetic acid TCA (Avantor Performance Materials, City, Poland) and were incubated at 4 °C for 1 h. […] Absorbance of each solution was read at Synergy H4 photometer (BioTek Instruments, Winooski, VT, USA) at 540 nm wavelength. […]

SMILES: N.N.[Cl][Pt][Cl] [cisplatin, reference compound]
- IC50 [1]: 1000 ± 230 nM
- SI HL-60 [1]: 5.30
- IR HL-60/vinc [2]: 6.87
- SI HL-60/vinc [2]: 0.77
- IC50 [2]: 6870 ± 1630 nM
- IC50 [3]: 3700 ± 1200 nM
- SI LoVo [3]: 1.43
- IR LoVo/DX [4]: 1.41
- SI LoVo/DX [4]: 1.02
- IC50 [4]: 5200 ± 1930 nM
- IC50 ([5]; normal murine embryonic fibroblasts): 5300 ± 2930 nM

- IC50 ([1]; Homo sapiens, HL-60): 40 ± 40 nM
- IC50 ([2]; Homo sapiens, HL60/vinc): 880 ± 260 nM
- IC50 ([3]; Homo sapiens, LoVo): 150 ± 60 nM
- IC50 ([4]; Homo sapiens, LoVo/DX): 5460 ± 1560 nM
SMILES: COc1cccc2c1C(=O)c1c(O)c3c(c(O)c1C2=O)C[C@@](O)(C(=O)CO)C[C@@H]3O[C@H]1C[C@H](N)[C@H](O)[C@H](C)O1 [doxorubicin, reference compound]
- SI HL-60 [1]: 4.50
- IR HL-60/vinc [2]: 22.00
- SI HL-60/vinc [2]: 0.20
- SI LoVo [3]: 1.20
- IR LoVo/DX [4]: 36.40
- SI LoVo/DX [4]: 0.03
- IC50 ([5]; Mus musculus, BALB/3T3, normal murine embryonic fibroblasts): 180 ± 70 nM
